# ChEMBL document CHEMBL3885881, “DrugMatrix”
# Species: Rattus norvegicus
# Assay: DrugMatrix - Regimen: Daily Repeat
# Type: toxicity, organism-based, Sprague-Dawley
# Set-up: regimen Daily Repeat, gender Male, age 6-8 weeks
# Conditions: in vivo, po, route oral GAVAGE, vehicle .5 % CMC; for ABSOLUTE BASOPHIL / ABSOLUTE EOSINOPHIL / ABSOLUTE LYMPHOCYTE / ABSOLUTE MONOCYTE / ABSOLUTE SEGMENTED NEUTROPHIL / BASOPHIL / EOSINOPHIL / ERYTHROCYTE COUNT / HEMATOCRIT / HEMOGLOBIN / LEUKOCYTE COUNT / LYMPHOCYTE / MEAN CORPUSCULAR HEMOGLOBIN / MEAN CORPUSCULAR HEMOGLOBIN CONCENTRATION / MEAN CORPUSCULAR VOLUME / MONOCYTE / NEUTROPHIL / NUCLEATED RED BLOOD CELLS / PLATELET COUNT: tissue Blood; for ALANINE AMINOTRANSFERASE / ALBUMIN / ALKALINE PHOSPHATASE / ASPARTATE AMINOTRANSFERASE / BLOOD UREA NITROGEN / CARBON DIOXIDE / CHLORIDE / CHOLESTEROL / CREATINE PHOSPHOKINASE / CREATININE / GLUCOSE / LACTATE DEHYDROGENASE / LIPASE / PHOSPHORUS / POTASSIUM / SODIUM / TOTAL BILIRUBIN / TOTAL PROTEIN / URIC ACID: tissue Plasma
# [1] = 88 mg/kg, 72 h, dose level Low, time 3 day
# [2] = 88 mg/kg, 120 h, dose level Low, time 5 day
# [3] = 750 mg/kg, 72 h, dose level High, time 3 day
# [4] = 750 mg/kg, 120 h, dose level High, time 5 day
structure (smiles),measurement,setting,value
CCC1(c2ccccc2)C(=O)NCNC1=O [PRIMIDONE],ABSOLUTE BASOPHIL,[1],0 CELLS/uL
same,ABSOLUTE EOSINOPHIL,[1],207.67 CELLS/uL
same,ABSOLUTE LYMPHOCYTE,[1],14556.33 CELLS/uL
same,ABSOLUTE MONOCYTE,[1],206 CELLS/uL
same,ABSOLUTE SEGMENTED NEUTROPHIL,[1],1063.33 CELLS/uL
same,BASOPHIL,[1],0%
same,EOSINOPHIL,[1],1.33%
same,ERYTHROCYTE COUNT,[1],5.49 x10E6/uL
same,HEMATOCRIT,[1],34.53%
same,HEMOGLOBIN,[1],13.03 G/DL
same,LEUKOCYTE COUNT,[1],16.03 x10E3/uL
same,LYMPHOCYTE,[1],90.67%
same,MEAN CORPUSCULAR HEMOGLOBIN,[1],23.87 pg
same,MEAN CORPUSCULAR HEMOGLOBIN CONCENTRATION,[1],37.8 G/DL
same,MEAN CORPUSCULAR VOLUME,[1],63.07 fL
same,MONOCYTE,[1],1.33%
same,NEUTROPHIL,[1],6.67%
same,NUCLEATED RED BLOOD CELLS,[1],0 /100WBC
same,PLATELET COUNT,[1],1338 x10E3/uL
same,ALANINE AMINOTRANSFERASE,[1],44.67 u/L
same,ALBUMIN,[1],4.17 G/DL
same,ALKALINE PHOSPHATASE,[1],329.33 u/L
same,ASPARTATE AMINOTRANSFERASE,[1],77.33 u/L
same,BLOOD UREA NITROGEN,[1],15 mg/dL
same,CARBON DIOXIDE,[1],25.33 mmol/L
same,CHLORIDE,[1],105.33 MEQ/L
same,CHOLESTEROL,[1],72 mg/dL
same,CREATINE PHOSPHOKINASE,[1],356 u/L
same,CREATININE,[1],0.16 mg/dL
same,GLUCOSE,[1],157.67 mg/dL
same,LACTATE DEHYDROGENASE,[1],80 u/L
same,LIPASE,[1],9 u/L
same,PHOSPHORUS,[1],13.8 mg/dL
same,POTASSIUM,[1],6.58 MEQ/L
same,SODIUM,[1],144.83 MEQ/L
same,TOTAL BILIRUBIN,[1],0.2 mg/dL
same,TOTAL PROTEIN,[1],5.83 G/DL
same,URIC ACID,[1],1.93 mg/dL
same,ABSOLUTE BASOPHIL,[2],0 CELLS/uL
same,ABSOLUTE EOSINOPHIL,[2],87 CELLS/uL
same,ABSOLUTE LYMPHOCYTE,[2],14869 CELLS/uL
same,ABSOLUTE MONOCYTE,[2],252 CELLS/uL
same,ABSOLUTE SEGMENTED NEUTROPHIL,[2],1292 CELLS/uL
same,BASOPHIL,[2],0%
same,EOSINOPHIL,[2],0.33%
same,ERYTHROCYTE COUNT,[2],5.5 x10E6/uL
same,HEMATOCRIT,[2],34.07%
same,HEMOGLOBIN,[2],13.03 G/DL
same,LEUKOCYTE COUNT,[2],16.5 x10E3/uL
same,LYMPHOCYTE,[2],91.33%
same,MEAN CORPUSCULAR HEMOGLOBIN,[2],23.67 pg
same,MEAN CORPUSCULAR HEMOGLOBIN CONCENTRATION,[2],38.3 G/DL
same,MEAN CORPUSCULAR VOLUME,[2],61.9 fL
same,MONOCYTE,[2],1.33%
same,NEUTROPHIL,[2],7%
same,NUCLEATED RED BLOOD CELLS,[2],0 /100WBC
same,PLATELET COUNT,[2],1298.67 x10E3/uL
same,ALANINE AMINOTRANSFERASE,[2],49.67 u/L
same,ALBUMIN,[2],3.93 G/DL
same,ALKALINE PHOSPHATASE,[2],300.67 u/L
same,ASPARTATE AMINOTRANSFERASE,[2],79.67 u/L
same,BLOOD UREA NITROGEN,[2],16.67 mg/dL
same,CARBON DIOXIDE,[2],27.67 mmol/L
same,CHLORIDE,[2],106.67 MEQ/L
same,CHOLESTEROL,[2],63.67 mg/dL
same,CREATINE PHOSPHOKINASE,[2],421.67 u/L
same,CREATININE,[2],0.21 mg/dL
same,GLUCOSE,[2],162 mg/dL
same,LACTATE DEHYDROGENASE,[2],161 u/L
same,LIPASE,[2],8.67 u/L
same,PHOSPHORUS,[2],13.87 mg/dL
same,POTASSIUM,[2],6.54 MEQ/L
same,SODIUM,[2],145.5 MEQ/L
same,TOTAL BILIRUBIN,[2],0.2 mg/dL
same,TOTAL PROTEIN,[2],6.03 G/DL
same,URIC ACID,[2],2.03 mg/dL
same,ABSOLUTE BASOPHIL,[3],0 CELLS/uL
same,ABSOLUTE EOSINOPHIL,[3],107 CELLS/uL
same,ABSOLUTE LYMPHOCYTE,[3],6934.67 CELLS/uL
same,ABSOLUTE MONOCYTE,[3],246.33 CELLS/uL
same,ABSOLUTE SEGMENTED NEUTROPHIL,[3],1312 CELLS/uL
same,BASOPHIL,[3],0%
same,EOSINOPHIL,[3],1%
same,ERYTHROCYTE COUNT,[3],6.1 x10E6/uL
same,HEMATOCRIT,[3],37.33%
same,HEMOGLOBIN,[3],14.33 G/DL
same,LEUKOCYTE COUNT,[3],8.6 x10E3/uL
same,LYMPHOCYTE,[3],79.33%
same,MEAN CORPUSCULAR HEMOGLOBIN,[3],23.6 pg
same,MEAN CORPUSCULAR HEMOGLOBIN CONCENTRATION,[3],38.3 G/DL
same,MEAN CORPUSCULAR VOLUME,[3],61.67 fL
same,MONOCYTE,[3],3%
same,NEUTROPHIL,[3],16.67%
same,NUCLEATED RED BLOOD CELLS,[3],0.33 /100WBC
same,PLATELET COUNT,[3],1338.67 x10E3/uL
same,ALANINE AMINOTRANSFERASE,[3],48.5 u/L
same,ALBUMIN,[3],4.73 G/DL
same,ALKALINE PHOSPHATASE,[3],307 u/L
same,ASPARTATE AMINOTRANSFERASE,[3],85 u/L
same,BLOOD UREA NITROGEN,[3],15.5 mg/dL
same,CARBON DIOXIDE,[3],26.33 mmol/L
same,CHLORIDE,[3],107.5 MEQ/L
same,CHOLESTEROL,[3],66.67 mg/dL
same,CREATINE PHOSPHOKINASE,[3],138 u/L
same,CREATININE,[3],0.24 mg/dL
same,GLUCOSE,[3],144.33 mg/dL
same,LACTATE DEHYDROGENASE,[3],137.33 u/L
same,LIPASE,[3],8.5 u/L
same,PHOSPHORUS,[3],10.5 mg/dL
same,POTASSIUM,[3],5.94 MEQ/L
same,SODIUM,[3],150.9 MEQ/L
same,TOTAL BILIRUBIN,[3],0.3 mg/dL
same,TOTAL PROTEIN,[3],6.2 G/DL
same,URIC ACID,[3],1 mg/dL
same,ABSOLUTE BASOPHIL,[4],0 CELLS/uL
same,ABSOLUTE EOSINOPHIL,[4],136.67 CELLS/uL
same,ABSOLUTE LYMPHOCYTE,[4],11870 CELLS/uL
same,ABSOLUTE MONOCYTE,[4],38.33 CELLS/uL
same,ABSOLUTE SEGMENTED NEUTROPHIL,[4],755 CELLS/uL
same,BASOPHIL,[4],0%
same,EOSINOPHIL,[4],1%
same,ERYTHROCYTE COUNT,[4],5.98 x10E6/uL
same,HEMATOCRIT,[4],37.3%
same,HEMOGLOBIN,[4],13.87 G/DL
same,LEUKOCYTE COUNT,[4],12.8 x10E3/uL
same,LYMPHOCYTE,[4],92.67%
same,MEAN CORPUSCULAR HEMOGLOBIN,[4],23.17 pg
same,MEAN CORPUSCULAR HEMOGLOBIN CONCENTRATION,[4],37.17 G/DL
same,MEAN CORPUSCULAR VOLUME,[4],62.37 fL
same,MONOCYTE,[4],0.33%
same,NEUTROPHIL,[4],6%
same,NUCLEATED RED BLOOD CELLS,[4],0 /100WBC
same,PLATELET COUNT,[4],1320.33 x10E3/uL
same,ALANINE AMINOTRANSFERASE,[4],59.67 u/L
same,ALBUMIN,[4],4.13 G/DL
same,ALKALINE PHOSPHATASE,[4],421 u/L
same,ASPARTATE AMINOTRANSFERASE,[4],98.33 u/L
same,BLOOD UREA NITROGEN,[4],15 mg/dL
same,CARBON DIOXIDE,[4],25.33 mmol/L
same,CHLORIDE,[4],105.33 MEQ/L
same,CHOLESTEROL,[4],68.33 mg/dL
same,CREATINE PHOSPHOKINASE,[4],186.67 u/L
same,CREATININE,[4],0.18 mg/dL
same,GLUCOSE,[4],159.33 mg/dL
same,LACTATE DEHYDROGENASE,[4],96 u/L
same,LIPASE,[4],9 u/L
same,PHOSPHORUS,[4],13.2 mg/dL
same,POTASSIUM,[4],6.32 MEQ/L
same,SODIUM,[4],146.03 MEQ/L
same,TOTAL BILIRUBIN,[4],0.2 mg/dL
same,TOTAL PROTEIN,[4],6.17 G/DL
same,URIC ACID,[4],2.07 mg/dL
